Results from publication PMC9738727, “Purification and Characterization of Novel Anti-MRSA Peptides Produced by Brevibacillus sp. SPR-20” (Molecules, 2022).
Ends that are not written are not given here.

Columns and labels:
MRSA isolate 2468 [1] = test: Agar well diffusion, arbitrary activity of purification fractions; format: cell-based, Staphylococcus aureus; details: 2-fold dilutions, AU per mg total protein
Method: Eight milliliters of the SPR-20 starter culture was added to 392 mL of Luria–Bertani (LB) broth (Titan Biotech Ltd., Rajasthan, India) in a 2 L flask. The culture was incubated at 30 °C and 150 rpm for 24 h before the crude supernatant was collected by centrifugation at 10,000× g and 4 °C for 15 min. Ammonium sulfate at 75% of saturation was added to the supernatant, and the precipitate was desalted by dialysis using a 3.5 kDa molecular weight cut-off (MWCO) SnakeSkin membrane (Pierce, Rockford, IL, USA) in the dialysis buffer (50 mM ammonium acetate pH 5.0 and 50 mM NaCl) at 4 °C for 16 h. The sample solution was purified by a HiTrap SP column under the elution gradient of buffer A (50 mM ammonium acetate pH 5.0 and 50 mM NaCl) and buffer B (50 mM ammonium acetate pH 5.0 and 1 M NaCl). The flow rate was set at 3 mL/min, and the wavelength was monitored at 214 nm. […] The peak was detected at 214 nm. […] The active fractions obtained from each purification step were prepared at different concentrations using 2-fold dilution, and the antimicrobial activity against MRSA isolate 2468 was determined by agar well diffusion assay.
The antimicrobial activity was measured by an agar well diffusion test with some modified methods. […] Each experiment was performed in three independent replicates, and the inhibition zone was measured and expressed as mean ± SD.

S. aureus TISTR 517 [2] = test: Killing kinetics; format: cell-based, Staphylococcus aureus; details: for killing half-time / rate constant of cell death within 24 h: linear regression; for time of eradication effect: strain not named in the sentence (tested bacteria)
Method: (§1) S. aureus TISTR 517 and MRSA isolate 2468 were cultured in CAMHB and standardized to obtain the cell number of 5 × 10^5 CFU/mL for initial treatment. […] The reactions were incubated at 37 °C, and then the total volume was spread on MH agar at specific time intervals (0–24 h). The plates were incubated at 37 °C for 24 h before colony count. […] The rate constant of cell death within 24 h and the killing half-time were calculated based on slope and linear regression relationship, respectively. Each experiment was performed in triplicate in 96-well plates. Significant differences (p-value < 0.05) were analyzed by two-way ANOVA and post hoc Tukey’s test for multiple comparisons between treated and non-treated samples.

MRSA isolate 2468 [3] = test: Killing kinetics; format: cell-based, Staphylococcus aureus; details: for killing half-time / rate constant of cell death within 24 h: linear regression
Method: as §1

S. aureus TISTR 517 [4] = test: Proteolytic enzyme stability, remaining activity by agar well diffusion; format: in vitro ADME, Staphylococcus aureus; details: proteinase K, trypsin, α-chymotrypsin, both test strains
Method: (§2) The antimicrobial activity was measured by an agar well diffusion test with some modified methods. In brief, single colonies of the tested strains were suspended in 0.85% NaCl, and then the OD at 625 nm was adjusted to 0.1. The cell suspensions were spread on MH agar, and the tested samples (100 μL) were introduced into each well before incubation at 37 °C for 24 h. Each experiment was performed in three independent replicates, and the inhibition zone was measured and expressed as mean ± SD.
The stability of the anti-MRSA peptide against several conditions was studied. […] The sensitivity of the peptide sample to proteolytic enzymes was investigated by incubating the sample with proteinase K, trypsin, and α-chymotrypsin (1 mg/mL) for 1 h. Surfactant compatibility of the substance was examined by incubating the sample with 1% SDS and 1% Triton X-100 for 1 h (AppliChem GmbH, Darmstadt, Germany). The acid and base hydrolysis property of the substance was assessed by pH adjustment to 2–14 for 1 h before the samples were neutralized to pH 7. […] The stability profiles were presented as the percentage of activity relative to the untreated condition (mean ± SD), and significant difference was determined by the Student’s t-test at a p-value < 0.05.

[5] = Circular dichroism secondary structure content (CONTINLL); format: physicochemical; details: CD, 25 °C
Method: The purified peptides (0.6 mg/mL) were dissolved in deionized water or 50 mM SDS and introduced into the circular dichroism (CD) spectrophotometer (JASCO Corporation, Tokyo, Japan). A 1 mm quartz cell was used for the measurement. The CD spectra were collected at 25 °C in the wavelength between 190 and 260 nm with a scanning speed of 100 nm/min, a bandwidth of 1.0 nm, and a data resolution of 0.1 nm. Each experiment was performed in three replications, and the background spectrum of the corresponding solvent was subtracted from the peptide spectrum. The content of the secondary structure of the peptides was calculated using the CONTINLL program.

S. aureus TISTR 517 [6] = test: microbe, parasite or virus in culture; format: cell-based, Staphylococcus aureus; details: P1 at 15 µg/mL, from vancomycin standard curve
Method: as §2
(§3) The agar well diffusion test was performed in triplicate for potency determination, using S. aureus TISTR 517 and MRSA isolate 2468 as the tested bacteria. […] The remaining standard and sample solutions were transferred to the other 3 wells. The plates were incubated at 37 °C for 18 h.

MRSA isolate 2468 [7] = test: microbe, parasite or virus in culture; format: cell-based, Staphylococcus aureus; details: P1 at 15 µg/mL, from vancomycin standard curve
Method: as §2, §3

VVVNVLVKVLPPPVV [Peptide P1]
Specific Activity (MRSA isolate 2468 [1]): 1694 AU/mg | killing half-time (S. aureus TISTR 517 [2]; 1× MIC): 25.36 h | rate constant of cell death within 24 h (S. aureus TISTR 517 [2]; 1× MIC): -0.11 h⁻¹ | killing half-time (S. aureus TISTR 517 [2]; 2× MIC): 11.08 h | rate constant of cell death within 24 h (S. aureus TISTR 517 [2]; 2× MIC): -0.26 h⁻¹ | time of eradication effect (S. aureus TISTR 517 [2]; 2× MIC): 24 h | reduction rate of viable cells (S. aureus TISTR 517 [2]; 3-24 h, 1× MIC): 0.12 h⁻¹ | reduction rate of viable cells (S. aureus TISTR 517 [2]; 3-24 h, 2× MIC): 0.23 h⁻¹ | reduction rate of viable cells (S. aureus TISTR 517 [2]; 3-24 h, 4× MIC): 0.31 h⁻¹ | killing half-time (S. aureus TISTR 517 [2]; 4× MIC, 95% CI 5.35 to 20.12): 9.80 h | rate constant of cell death within 24 h (S. aureus TISTR 517 [2]; 4× MIC, 95% CI −0.16 to −0.38): -0.27 h⁻¹ | time of eradication effect (S. aureus TISTR 517 [2]; 4× MIC): 18 h | reduction rate of viable cells (S. aureus TISTR 517 [2]; first 3 h, all peptide concentrations (1×, 2×, 4× MIC)): 0.14 h⁻¹ | killing half-time (MRSA isolate 2468 [3]; 1× MIC): 47.75 h | rate constant of cell death within 24 h (MRSA isolate 2468 [3]; 1× MIC): -0.06 h⁻¹ | killing half-time (MRSA isolate 2468 [3]; 2× MIC): 13.21 h | rate constant of cell death within 24 h (MRSA isolate 2468 [3]; 2× MIC): -0.23 h⁻¹ | inhibition rate (MRSA isolate 2468 [3]; 4× MIC, during 3–12 h): 0.32 h⁻¹ | killing half-time (MRSA isolate 2468 [3]; 4× MIC, 95% CI 5.67 to 18.47): 9.78 h | rate constant of cell death within 24 h (MRSA isolate 2468 [3]; 4× MIC, 95% CI −0.17 to −0.36): -0.27 h⁻¹ | inhibition rate (MRSA isolate 2468 [3]; after 6 h of treatment, 1× MIC): 0.06 h⁻¹ | inhibition rate (MRSA isolate 2468 [3]; after 6 h of treatment, 2× MIC): 0.24 h⁻¹ | reduction rate of viable cells (MRSA isolate 2468 [3]; first 3 h): 0.10 h⁻¹ | activity when incubated with proteolytic enzymes (S. aureus TISTR 517 [4]): more than 90% | Random ([5]; 0.6 mg/mL in 50 mM SDS): 34.6% | Turn ([5]; 0.6 mg/mL in 50 mM SDS): 10.6% | α-Helix ([5]; 0.6 mg/mL in 50 mM SDS): 25.5% | β-Strand ([5]; 0.6 mg/mL in 50 mM SDS): 29.3% | Random ([5]; 0.6 mg/mL in H2O): 32.4% | Turn ([5]; 0.6 mg/mL in H2O): 19.5% | α-Helix ([5]; 0.6 mg/mL in H2O): 4.1% | β-Strand ([5]; 0.6 mg/mL in H2O): 44.0% | vancomycin concentration of equivalent potency (S. aureus TISTR 517 [6]): 76.29 to 87.36 µg/mL | vancomycin concentration of equivalent potency (MRSA isolate 2468 [7]): 85.97 to 109.05 µg/mL
